Test results published in ChEMBL document CHEMBL4376817, “Drug Discovery Targeting Anaplastic Lymphoma Kinase (ALK)” (J Med Chem, 2019).
One block for each compound: values may come before it.

Assays:
[1] = biological target: Vascular endothelial growth factor receptor 2 (Homo sapiens, UniProt P35968)
[2] = biological target: T1, ALK tyrosine kinase receptor (Homo sapiens, UniProt Q9UM73)
[3] = tested on: IMR-32; assay: Cytotoxicity against human IMR32 cells; type: functional, cell-based
[4] = tested on: SH-SY5Y; assay: Cytotoxicity against human SH-SY5Y cells; type: functional, cell-based
[5] = physchem; conditions: octanol/water
[6] = tested on: NCI-H3122; assay: cells; conditions: Homo sapiens
[7] = biological target: T1, ALK tyrosine kinase receptor; remark: listed apart in the source
[8] = biological target: Hepatocyte growth factor receptor (Homo sapiens, UniProt P08581); assay: Inhibition of c-MET (unknown origin) by kinome scan-based assay
Hepatocyte growth factor receptor, sequence (P08581 whole entry): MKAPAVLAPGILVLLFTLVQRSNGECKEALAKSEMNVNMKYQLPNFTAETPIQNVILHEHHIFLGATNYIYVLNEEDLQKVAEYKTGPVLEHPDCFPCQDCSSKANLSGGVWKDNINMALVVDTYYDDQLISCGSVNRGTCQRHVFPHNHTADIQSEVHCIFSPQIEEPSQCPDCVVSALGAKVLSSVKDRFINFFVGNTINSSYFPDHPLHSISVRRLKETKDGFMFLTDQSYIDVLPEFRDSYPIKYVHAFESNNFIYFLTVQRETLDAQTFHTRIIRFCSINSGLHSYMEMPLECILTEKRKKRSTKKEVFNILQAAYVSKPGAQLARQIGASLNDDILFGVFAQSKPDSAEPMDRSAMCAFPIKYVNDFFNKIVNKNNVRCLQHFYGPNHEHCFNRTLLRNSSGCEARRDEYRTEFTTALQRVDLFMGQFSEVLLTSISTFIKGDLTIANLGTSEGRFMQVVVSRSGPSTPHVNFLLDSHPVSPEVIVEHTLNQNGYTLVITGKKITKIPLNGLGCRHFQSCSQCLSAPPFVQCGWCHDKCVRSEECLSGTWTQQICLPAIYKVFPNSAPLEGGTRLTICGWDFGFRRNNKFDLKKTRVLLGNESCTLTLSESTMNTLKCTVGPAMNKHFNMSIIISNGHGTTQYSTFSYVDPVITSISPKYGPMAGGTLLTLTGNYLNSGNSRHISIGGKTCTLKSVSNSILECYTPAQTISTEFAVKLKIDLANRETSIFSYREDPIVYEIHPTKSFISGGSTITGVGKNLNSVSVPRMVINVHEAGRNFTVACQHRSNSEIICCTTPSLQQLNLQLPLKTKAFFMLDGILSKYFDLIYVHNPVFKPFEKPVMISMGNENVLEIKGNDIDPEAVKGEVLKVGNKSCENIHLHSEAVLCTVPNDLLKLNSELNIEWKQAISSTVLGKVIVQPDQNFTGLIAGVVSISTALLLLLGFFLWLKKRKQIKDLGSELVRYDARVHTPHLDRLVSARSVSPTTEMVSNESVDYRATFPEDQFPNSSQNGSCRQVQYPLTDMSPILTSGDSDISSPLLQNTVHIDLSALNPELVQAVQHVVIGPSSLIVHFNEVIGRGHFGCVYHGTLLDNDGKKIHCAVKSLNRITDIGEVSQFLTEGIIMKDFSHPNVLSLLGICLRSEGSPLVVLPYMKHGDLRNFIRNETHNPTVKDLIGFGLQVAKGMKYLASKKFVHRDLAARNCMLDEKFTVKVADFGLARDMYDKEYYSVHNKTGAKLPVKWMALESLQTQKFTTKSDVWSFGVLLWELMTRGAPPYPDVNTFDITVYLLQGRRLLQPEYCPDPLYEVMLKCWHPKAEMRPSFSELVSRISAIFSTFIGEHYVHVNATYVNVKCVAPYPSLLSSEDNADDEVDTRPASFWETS

[9] = tested on: NCI-H3122; assay: Cytotoxicity against human NCI-H3122 cells harboring EML4-ALK E13;A20 mutant incubated for 72 hrs by Cell titer blue assay; type: functional, cell-based; conditions: NCI-H3122, 72 h
[10] = tested on: NCI-H3122; assay: Potency index, ratio of crizotinib IC50 to test compound IC50 for cytotoxicity against human NCI-H3122 cells harboring EML4-ALK E13;A20 mutant; type: functional

T1 sequence (Q9UM73 whole entry): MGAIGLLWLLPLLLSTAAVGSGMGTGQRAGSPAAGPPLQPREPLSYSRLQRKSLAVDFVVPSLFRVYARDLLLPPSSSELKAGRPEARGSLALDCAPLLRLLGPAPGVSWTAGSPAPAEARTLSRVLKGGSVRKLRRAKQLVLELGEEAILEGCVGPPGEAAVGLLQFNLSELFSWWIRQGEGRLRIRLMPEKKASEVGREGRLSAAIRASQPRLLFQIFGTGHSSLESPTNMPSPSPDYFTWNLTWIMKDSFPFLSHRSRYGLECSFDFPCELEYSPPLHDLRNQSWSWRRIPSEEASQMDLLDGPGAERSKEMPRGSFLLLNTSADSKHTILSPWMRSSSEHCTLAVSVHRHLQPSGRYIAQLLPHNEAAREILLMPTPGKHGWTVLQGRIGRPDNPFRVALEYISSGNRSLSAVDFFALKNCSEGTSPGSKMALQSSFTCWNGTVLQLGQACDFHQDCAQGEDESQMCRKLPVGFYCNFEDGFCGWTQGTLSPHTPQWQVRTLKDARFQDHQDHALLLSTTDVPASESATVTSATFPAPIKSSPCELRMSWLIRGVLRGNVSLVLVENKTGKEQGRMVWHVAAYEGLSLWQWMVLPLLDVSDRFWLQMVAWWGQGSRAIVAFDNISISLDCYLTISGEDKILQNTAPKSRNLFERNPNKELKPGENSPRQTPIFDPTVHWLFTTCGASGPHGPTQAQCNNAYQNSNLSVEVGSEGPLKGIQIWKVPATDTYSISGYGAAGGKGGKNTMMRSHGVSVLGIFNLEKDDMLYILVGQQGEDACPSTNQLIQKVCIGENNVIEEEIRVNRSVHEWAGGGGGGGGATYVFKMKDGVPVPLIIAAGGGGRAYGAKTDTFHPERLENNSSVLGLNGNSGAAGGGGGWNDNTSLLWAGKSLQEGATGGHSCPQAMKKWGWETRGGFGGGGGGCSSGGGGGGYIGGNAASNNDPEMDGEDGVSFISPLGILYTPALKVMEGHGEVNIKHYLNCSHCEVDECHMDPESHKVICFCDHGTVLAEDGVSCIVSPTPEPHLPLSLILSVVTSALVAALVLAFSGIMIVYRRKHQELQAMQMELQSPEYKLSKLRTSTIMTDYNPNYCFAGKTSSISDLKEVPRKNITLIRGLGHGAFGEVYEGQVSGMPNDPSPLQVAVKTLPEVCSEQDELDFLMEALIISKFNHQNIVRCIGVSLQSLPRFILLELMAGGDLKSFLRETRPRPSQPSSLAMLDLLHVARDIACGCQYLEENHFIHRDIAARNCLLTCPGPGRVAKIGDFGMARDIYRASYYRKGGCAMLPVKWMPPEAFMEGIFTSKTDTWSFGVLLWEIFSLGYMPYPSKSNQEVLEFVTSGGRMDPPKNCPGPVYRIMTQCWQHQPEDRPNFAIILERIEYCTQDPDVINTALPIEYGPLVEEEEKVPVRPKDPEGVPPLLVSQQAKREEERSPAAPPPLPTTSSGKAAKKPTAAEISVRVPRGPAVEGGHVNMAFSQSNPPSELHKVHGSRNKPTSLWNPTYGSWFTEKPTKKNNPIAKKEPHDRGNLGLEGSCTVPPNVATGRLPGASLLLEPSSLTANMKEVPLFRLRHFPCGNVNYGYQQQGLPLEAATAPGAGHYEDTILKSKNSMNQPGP
Vascular endothelial growth factor receptor 2, sequence (P35968 whole entry): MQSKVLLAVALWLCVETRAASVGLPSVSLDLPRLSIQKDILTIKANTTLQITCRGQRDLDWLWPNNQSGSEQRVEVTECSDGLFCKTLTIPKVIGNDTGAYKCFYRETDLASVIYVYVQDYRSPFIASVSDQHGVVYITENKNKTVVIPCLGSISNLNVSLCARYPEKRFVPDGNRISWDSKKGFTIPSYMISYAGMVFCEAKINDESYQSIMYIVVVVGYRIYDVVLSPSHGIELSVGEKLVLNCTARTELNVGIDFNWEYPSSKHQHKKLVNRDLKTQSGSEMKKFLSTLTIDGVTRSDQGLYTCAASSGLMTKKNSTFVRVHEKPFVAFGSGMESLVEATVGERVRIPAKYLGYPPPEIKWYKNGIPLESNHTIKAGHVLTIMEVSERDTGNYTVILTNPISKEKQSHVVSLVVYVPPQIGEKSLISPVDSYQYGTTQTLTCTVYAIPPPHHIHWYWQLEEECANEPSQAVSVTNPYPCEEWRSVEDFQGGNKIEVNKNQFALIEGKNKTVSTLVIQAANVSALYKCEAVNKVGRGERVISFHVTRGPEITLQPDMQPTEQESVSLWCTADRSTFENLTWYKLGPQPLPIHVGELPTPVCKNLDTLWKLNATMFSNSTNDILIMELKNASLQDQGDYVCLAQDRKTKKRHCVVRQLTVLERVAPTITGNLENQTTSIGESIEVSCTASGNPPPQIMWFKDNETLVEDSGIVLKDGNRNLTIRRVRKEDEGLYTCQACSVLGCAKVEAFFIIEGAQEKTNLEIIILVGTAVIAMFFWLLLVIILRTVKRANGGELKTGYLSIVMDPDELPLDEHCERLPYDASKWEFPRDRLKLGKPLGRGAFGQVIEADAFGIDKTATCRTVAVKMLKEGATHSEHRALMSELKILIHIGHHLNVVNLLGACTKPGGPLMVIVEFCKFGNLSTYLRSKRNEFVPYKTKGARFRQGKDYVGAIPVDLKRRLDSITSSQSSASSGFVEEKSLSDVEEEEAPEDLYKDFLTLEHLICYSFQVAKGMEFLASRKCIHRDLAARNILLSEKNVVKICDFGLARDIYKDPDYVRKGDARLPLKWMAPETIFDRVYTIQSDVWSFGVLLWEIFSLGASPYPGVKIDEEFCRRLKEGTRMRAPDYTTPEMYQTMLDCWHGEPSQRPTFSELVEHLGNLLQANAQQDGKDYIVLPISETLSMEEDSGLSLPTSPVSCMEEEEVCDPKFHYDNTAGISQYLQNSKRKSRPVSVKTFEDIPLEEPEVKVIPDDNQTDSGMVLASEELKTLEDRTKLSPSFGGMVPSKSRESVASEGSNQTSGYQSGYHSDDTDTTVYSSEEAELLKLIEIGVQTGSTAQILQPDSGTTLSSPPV

SMILES: CCc1cc2c(cc1N1CCN(C3COC3)CC1)C(C)(C)c1[nH]c3cc(C#N)ccc3c1C2=O
IC50 [1]: > 5000 nM

SMILES: COc1cc(N2CCC(N)CC2)ccc1Nc1ncc(Cl)c(-c2c[nH]c3ccccc23)n1
Ki [2]: 0.75 nM
IC50 [3]: 2.8 nM
IC50 [4]: 1.7 nM

SMILES: CCc1cc2c(cc1N1CCC(N3CCOCC3)CC1)C(C)(C)c1[nH]c3cc(C#N)ccc3c1C2=O [ALECTINIB]
IC50 [6]: 9 nM

More lines, main results first:

logD [5]: 2.2
SMILES: Cc1nn(C)c2c1Cc1cnc(N)c(c1)O[C@H](C)c1cc(F)ccc1C(=O)N(C)C2

IC50 [7]: < 0.4 nM
IC50 [8]: 0.74 nM
SMILES: C[C@@H]1CN(C(=O)c2ccc(NC(=O)c3cc(O[C@H](C)c4c(Cl)ccc(F)c4Cl)c(N)nn3)cc2)C[C@H](C)N1 [ENSARTINIB]
IC50 [9]: 15 nM
Ratio IC50 [10]: 10
